This note sets out measurements from publication PMC4057759, “Biological Evaluation and 3D-QSAR Studies of Curcumin Analogues as Aldehyde Dehydrogenase 1 Inhibitors” (International Journal of Molecular Sciences, 2014).

SMILES strings stand for the structures. Like-named read-outs stand apart in the source and are kept apart here.

One series concerns the target T1, baker's yeast ALDH1 (Saccharomyces cerevisiae, UniProt P46367).
T1 construct: purchased Sigma (St. Louis, MO, USA)
T1 sequence (P46367 25-519): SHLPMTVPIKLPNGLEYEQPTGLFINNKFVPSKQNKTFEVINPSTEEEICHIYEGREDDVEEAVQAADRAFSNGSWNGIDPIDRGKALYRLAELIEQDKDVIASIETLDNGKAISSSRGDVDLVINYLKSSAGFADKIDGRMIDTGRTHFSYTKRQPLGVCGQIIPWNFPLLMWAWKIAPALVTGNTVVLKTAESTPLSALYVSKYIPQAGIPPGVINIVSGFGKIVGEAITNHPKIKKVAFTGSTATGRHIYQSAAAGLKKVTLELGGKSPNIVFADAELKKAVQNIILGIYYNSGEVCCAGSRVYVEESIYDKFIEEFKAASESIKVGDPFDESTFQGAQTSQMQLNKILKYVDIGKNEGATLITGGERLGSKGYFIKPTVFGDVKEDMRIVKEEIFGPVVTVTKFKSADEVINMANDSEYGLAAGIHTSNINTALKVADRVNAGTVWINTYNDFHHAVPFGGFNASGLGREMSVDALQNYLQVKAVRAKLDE
The series can be described thus: In vitro ALDH1 inhibitory assay (propanal oxidation, NAD, OD 340 nm). In kind it is biochemical. The conditions noted are these: for inhibitory activity on ALDH1 (in words): in vitro. How it is done:
(§1) In vitro ALDH1 inhibitory assay was performed as follows. To a reaction mixture containing 1 mM EDTA, 100 mM KCl, 2 mM NAD, 0.1 M sodium phosphate buffer pH 7.4, 1 U/mg baker’s yeast ALDH1 was added by Multifunction microplatereader (Tecan Infinite 200, TECAN Austria GmbH, Männedorf, Switzerland). The reaction was started by the addition of 1 mM propanal in final volume of 300 μL and the optical density (OD) was read at 340 nm at 0 min (just after the addition of the substrate) and reacted for 5 min. The enzyme activity is expressed as OD/min at 25 °C at the pH 7.4. Results are the average of three experiments done in duplicate. […] The IC50 values in units of μM were transformed in pIC50 (–log IC50). The data was randomly divided into training set (26 samples) and test set (4 samples * carry out external validation).

Another series concerns the target T2, ALDH1 (Saccharomyces cerevisiae, UniProt P46367).
T2 construct: purchased Sigma (St. Louis, MO, USA)
T2 sequence (P46367 25-519): T1 sequence (P46367 25-519)
The series can be described thus: Kinetic analysis of inhibition of ALDH1 (Lineweaver-Burk plots, propanal). In kind it is biochemical, baker's yeast. The settings on record: double-reciprocal plots, oxidation of propanal. Here is the method:
as §1, with “Figure 1. […] In vitro” for “In vitro”

Another series is described as follows: Solubility (remark). In kind it is physicochemical.
Where [1] appears, read: 1 mM propanal, 2 mM NAD, pH 7.4, 25 °C, read-out: IC50.
Setting [2] is: Table 3, experimental activity, read-out: Actual pIC50 (converted).
The mark [3] stands for this setting: Table 1, –log IC50, read-out: pIC50 (converted).

Consider `COc1cc(/C=C2\CNC/C(=C\c3cc(OC)c(O)c(OC)c3)C2=O)cc(OC)c1O` [Compound 3], for which the IC50 on baker's yeast ALDH1 (setting [1]) is 30 µM; at baker's yeast ALDH1 (setting [2]), 30.2 µM.

Consider `O=C1/C(=C/c2ccc(O)c(O)c2)CNC/C1=C\c1ccc(O)c(O)c1` [Compound 4], for which the IC50 is 39.4 µM on baker's yeast ALDH1 (setting [1]) and 39.8 µM on baker's yeast ALDH1 (setting [2]).

With `O=C(/C=C/c1ccc(O)c(O)c1)/C=C/c1ccc(O)c(O)c1` [Compound 5], the IC50 is 23.6 µM at baker's yeast ALDH1 (setting [1]) and 23.4 µM at baker's yeast ALDH1 (setting [2]).

With `O=C1/C(=C/c2ccc(O)c(O)c2)CC/C1=C\c1ccc(O)c(O)c1` [Compound 6], the inhibition type entry at ALDH1 was “mixed-competitive inhibition type”. The results for the IC50 at baker's yeast ALDH1 (setting [1]) and at baker's yeast ALDH1 (setting [3]) were 3.41 µM and 3.47 µM, respectively. Further, the “inhibitory activity on ALDH1 (in words)” value on baker's yeast ALDH1 is recorded as “high inhibitory activity”. Also, on baker's yeast ALDH1 (ratio of IC50 values), the “activity relative to curcumin” value is given as “over 10 times”.

As to `O=C1/C(=C/c2ccc(O)c(O)c2)CCC/C1=C\c1ccc(O)c(O)c1` [Compound 7], the IC50 against baker's yeast ALDH1 (Actual pIC50, Table 3, experimental activity) is 6.31 µM; against baker's yeast ALDH1 (IC50, 1 mM propanal, 2 mM NAD, pH 7.4, 25 °C), 6.5 µM; on baker's yeast ALDH1 (pIC50, Table 1, –log IC50), 6.31 µM. Further, the “inhibitory activity on ALDH1 (in words)” value against baker's yeast ALDH1 was “high inhibitory activity”.

`O=C1/C(=C/c2ccc(O)c(O)c2)COC/C1=C\c1ccc(O)c(O)c1` [Compound 8]: the IC50 is 7.9 µM at baker's yeast ALDH1 (setting [1]) and 7.94 µM at baker's yeast ALDH1 (setting [2]). Besides, the “inhibitory activity on ALDH1 (in words)” value against baker's yeast ALDH1 was “high inhibitory activity”.

Take `O=C1/C(=C/c2ccc(O)c(O)c2)CSC/C1=C\c1ccc(O)c(O)c1` [Compound 9]: the values for the IC50 at baker's yeast ALDH1 (setting [1]) and on baker's yeast ALDH1 (setting [2]) were 22.7 µM and 22.9 µM, respectively.

With `O=C1/C(=C/c2ccc(O)cc2)CC/C1=C\c1ccc(O)cc1` [Compound 10], the figures for the IC50 on baker's yeast ALDH1 (setting [1]) and on baker's yeast ALDH1 (setting [2]) were 54.2 µM and 63.1 µM, respectively.

For the compound `O=C1/C(=C/c2ccc(O)cc2)COC/C1=C\c1ccc(O)cc1` [Compound 11], the IC50 at baker's yeast ALDH1 (setting [1]) is 39.7 µM; at baker's yeast ALDH1 (setting [3]) it was 38.9 µM; at baker's yeast ALDH1 (setting [2]), 38.9 µM.

In the case of `O=C1/C(=C/c2cc(O)cc(O)c2)CC/C1=C\c1cc(O)cc(O)c1` [Compound 12], the IC50 is 43.2 µM on baker's yeast ALDH1 (setting [1]) and 43.7 µM on baker's yeast ALDH1 (setting [2]).

Take `COc1cc(/C=C2\CC/C(=C\c3ccc(O)c(OC)c3)C2=O)ccc1O` [Compound 13]: the IC50 on baker's yeast ALDH1 (setting [1]) is 24.2 µM; on baker's yeast ALDH1 (setting [2]) it was 24 µM.

Regarding `COc1cc(/C=C2\CSC/C(=C\c3ccc(O)c(OC)c3)C2=O)ccc1O` [Compound 14], the IC50 at baker's yeast ALDH1 (setting [1]) is 31.3 µM; on baker's yeast ALDH1 (setting [2]) it was 31.6 µM.

Consider `COc1cc(/C=C2\COC/C(=C\c3cc(OC)c(O)c(OC)c3)C2=O)cc(OC)c1O` [Compound 15], for which the IC50 on baker's yeast ALDH1 (setting [1]) and at baker's yeast ALDH1 (setting [2]) was 16.6 µM each time.

With `COc1cc(/C=C2\COC/C(=C\c3cc(F)c(O)c(OC)c3)C2=O)cc(F)c1O` [Compound 16], the IC50 on baker's yeast ALDH1 (setting [1]) was 53.2 µM; at baker's yeast ALDH1 (setting [2]), 53.7 µM.

Regarding `O=C(/C=C/c1cc(Br)c(O)c(Br)c1)/C=C/c1cc(Br)c(O)c(Br)c1` [Compound 17], the IC50 at baker's yeast ALDH1 (setting [1]) is 25.8 µM; on baker's yeast ALDH1 (setting [2]) it was 25.7 µM.

As for `O=C1/C(=C/c2cc(Br)c(O)c(Br)c2)CCC/C1=C\c1cc(Br)c(O)c(Br)c1` [Compound 18], the results for the IC50 on baker's yeast ALDH1 (setting [1]) and on baker's yeast ALDH1 (setting [2]) were 17.5 µM and 17.4 µM, respectively.

For the compound `O=C1/C(=C/c2cc(Br)c(O)c(Br)c2)COC/C1=C\c1cc(Br)c(O)c(Br)c1` [Compound 19], the IC50 on baker's yeast ALDH1 (setting [1]) was 18.7 µM; at baker's yeast ALDH1 (setting [2]), 18.6 µM.

Consider `O=C1/C(=C/c2cc(Br)c(O)c(Br)c2)CSC/C1=C\c1cc(Br)c(O)c(Br)c1` [Compound 20], for which the IC50 at baker's yeast ALDH1 (setting [1]) was 17.7 µM; on baker's yeast ALDH1 (setting [2]), 17.8 µM.

`COc1cc(/C=C2\CSC/C(=C\c3cc(OC)c(OC)c(OC)c3)C2=O)cc(OC)c1OC` [Compound 21]: the IC50 on baker's yeast ALDH1 (setting [1]) and on baker's yeast ALDH1 (setting [2]) was 63.1 µM each time.

For the compound `CN(C)c1ccc(/C=C2\CCC/C(=C\c3ccc(N(C)C)cc3)C2=O)cc1` [Compound 22], the figures for the IC50 at baker's yeast ALDH1 (setting [1]) and at baker's yeast ALDH1 (setting [2]) were 73.5 µM and 74.1 µM, respectively.

On to `CN(C)c1ccc(/C=C2\CSC/C(=C\c3ccc(N(C)C)cc3)C2=O)cc1` [Compound 23], for which the IC50 at baker's yeast ALDH1 (setting [1]) was 69.4 µM; on baker's yeast ALDH1 (setting [2]) it was 69.2 µM.

In the case of `O=C1/C(=C/c2ccc(Br)cc2)CCC/C1=C\c1ccc(Br)cc1` [Compound 24], the inhibition type result against ALDH1 is recorded as “mixed-competitive inhibition type”. Further, the solubility result in “Solubility (remark)” is on record as “not good”. The results for the IC50 at baker's yeast ALDH1 (setting [1]), at baker's yeast ALDH1 (setting [3]) and at baker's yeast ALDH1 (setting [2]) were 8.2 µM, 8.32 µM and 8.32 µM, respectively. The “inhibitory activity on ALDH1 (in words)” value on baker's yeast ALDH1 is recorded as “high inhibitory activity”.

In the case of `O=C1/C(=C/c2cccs2)CC/C1=C\c1cccs1` [Compound 25], the IC50 on baker's yeast ALDH1 (setting [1]) is 30.1 µM; on baker's yeast ALDH1 (setting [3]) it was 29.5 µM; at baker's yeast ALDH1 (setting [2]), 29.5 µM.

Turning to `O=C1/C(=C/c2ccncc2)CSC/C1=C\c1ccncc1` [Compound 26], the IC50 at baker's yeast ALDH1 (setting [1]) was 10.6 µM; on baker's yeast ALDH1 (setting [2]) it was 10.7 µM.

Turning to `O=C1/C(=C/c2ccccn2)CC/C1=C\c1ccccn1` [Compound 29], the IC50 at baker's yeast ALDH1 (setting [3]) and at baker's yeast ALDH1 (setting [2]) was 13.8 µM each time.

For the compound `O=C1/C(=C/c2ccccn2)CCC/C1=C\c1ccccn1` [Compound 30], the IC50 at baker's yeast ALDH1 (setting [1]) is 18.4 µM; at baker's yeast ALDH1 (setting [2]), 18.2 µM.

In the case of `COc1cc(/C=C/C(=O)CC(=O)/C=C/c2ccc(O)c(OC)c2)ccc1O` [Curcumin], the IC50 at baker's yeast ALDH1 (setting [1]) was found to be 36.9 µM.

`CCN(CC)C(=S)SSC(=S)N(CC)CC` [Disufiram, disulfiram, reference compound]: the IC50 on baker's yeast ALDH1 (setting [1]) worked out at 2.91 µM.
